In ChEMBL document CHEMBL1201862, “PubChem BioAssay data set” (2004):
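Following 48 hours of exposure in 96-well plates, responses at five concentrations were used to interpolate endpoints linearly. GI50 marks 50% less growth.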 Active and inactive are the calls of the source. No stated cut-off is given here; in the data, active = GI50 up to about 1.1 µM and inactive = higher.

How the values were obtained:
Assay in all cases: inhibition of tumour cell growth, NCI panel, 48 h
UACC-257 = test system: UACC-257
KM12 = test system: KM12
A549 = test system: A549
NCI-H522 = test system: NCI-H522
NCI-H226 = test system: NCI-H226
NCI-H23 = test system: NCI-H23
ACHN = test system: ACHN
OVCAR-5 = test system: OVCAR-5
M14 = test system: M14
SR = test system: SR
CCRF-CEM = test system: CCRF-CEM
OVCAR-8 = test system: OVCAR-8
SK-MEL-2 = test system: SK-MEL-2
KM-20L2 = test system: KM-20L2
A498 = test system: A498
IGROV-1 = test system: IGROV-1
SK-MEL-5 = test system: SK-MEL-5

Measured: GI50

Cc1ccc(NC(=O)SCCC(=O)O)cc1NC(=O)SCCC(=O)O
inactive: UACC-257 > 100 µM | KM12 > 100 µM | A549 > 100 µM | NCI-H522 > 100 µM | NCI-H226 > 100 µM | NCI-H23 > 100 µM | ACHN > 100 µM | OVCAR-5 > 100 µM | M14 > 100 µM | SR > 100 µM | CCRF-CEM > 100 µM | OVCAR-8 > 100 µM | SK-MEL-2 > 100 µM | KM-20L2 > 100 µM | A498 > 100 µM | IGROV-1 > 100 µM

CC(C)c1cccc(C(C)C)c1NC(=O)C(=O)C1SC(=S)NC1=O (centres undefined)
inactive: UACC-257 > 100 µM | KM12 > 100 µM | A549 > 100 µM | NCI-H522 > 100 µM | SK-MEL-5 > 100 µM | NCI-H226 > 100 µM | NCI-H23 > 100 µM | ACHN > 100 µM | OVCAR-5 > 100 µM | M14 > 100 µM | SR > 100 µM | CCRF-CEM > 100 µM | OVCAR-8 > 100 µM | SK-MEL-2 > 100 µM | KM-20L2 > 100 µM | A498 > 100 µM | IGROV-1 > 100 µM

O=c1cccccc1NCCCCCCCNc1cccccc1=O
inactive: UACC-257 16.4 µM | KM12 56.4 µM | A549 21.8 µM | NCI-H522 13.8 µM | NCI-H226 34.5 µM | NCI-H23 19.7 µM | ACHN 26.7 µM | OVCAR-5 77.1 µM | M14 23 µM | SR 22.1 µM | CCRF-CEM 13.4 µM | OVCAR-8 31.6 µM | SK-MEL-2 49 µM | KM-20L2 38.1 µM | IGROV-1 54.2 µM

C=CCNC(=S)N1c2ccccc2NC(=O)CC1C (centres undefined)
inactive: KM12 > 100 µM | A549 > 100 µM | NCI-H522 > 100 µM | SK-MEL-5 > 100 µM | NCI-H226 > 100 µM | NCI-H23 > 100 µM | ACHN > 100 µM | OVCAR-5 > 100 µM | M14 > 100 µM | SR > 100 µM | CCRF-CEM > 100 µM | OVCAR-8 > 100 µM | SK-MEL-2 > 100 µM | KM-20L2 > 100 µM | IGROV-1 > 100 µM

Cc1ccc(S(=O)OC2c3ccccc3Cc3ccccc32)cc1 (centres undefined)
inactive: UACC-257 19.3 µM | KM12 21.2 µM | A549 27.3 µM | NCI-H522 13.9 µM | SK-MEL-5 19.3 µM | NCI-H226 18.5 µM | NCI-H23 18.6 µM | ACHN 22.4 µM | OVCAR-5 15.6 µM | M14 18.6 µM | SR 21.8 µM | OVCAR-8 15.6 µM | KM-20L2 19.9 µM | A498 21.9 µM | IGROV-1 21.6 µM

Cn1c(=O)c2nc(-c3ccc(Cl)cc3)oc2n(C)c1=O
inactive: UACC-257 > 100 µM | KM12 > 100 µM | A549 > 100 µM | NCI-H522 > 100 µM | SK-MEL-5 > 100 µM | NCI-H226 > 100 µM | NCI-H23 > 100 µM | ACHN > 100 µM | OVCAR-5 > 100 µM | M14 > 100 µM | SR > 100 µM | CCRF-CEM > 100 µM | OVCAR-8 > 100 µM | SK-MEL-2 > 100 µM | KM-20L2 > 100 µM | A498 > 100 µM

C#CC[C@]12CC(=O)CC[C@H]1CC(=O)C2
inactive: UACC-257 > 100 µM | KM12 > 100 µM | A549 > 100 µM | NCI-H522 > 100 µM | SK-MEL-5 > 100 µM | NCI-H226 > 100 µM | ACHN > 100 µM | M14 > 100 µM | SR > 100 µM | CCRF-CEM > 100 µM | OVCAR-8 > 100 µM | SK-MEL-2 > 100 µM | KM-20L2 > 100 µM | A498 > 100 µM | IGROV-1 > 100 µM

Cc1ccc(Oc2ccccc2N)cc1
inactive: UACC-257 52.5 µM | KM12 33.3 µM | A549 36.9 µM | SK-MEL-5 7.89 µM | NCI-H23 39.9 µM | OVCAR-5 40.6 µM | M14 33.5 µM | SR 9.31 µM | CCRF-CEM 7.03 µM | OVCAR-8 79.3 µM | SK-MEL-2 51.5 µM | KM-20L2 12.7 µM | A498 > 100 µM | IGROV-1 50.4 µM

CN(C)CC1CCCC/C1=N/OC(=O)c1ccc(Cl)cc1 (centres undefined)
inactive: UACC-257 > 100 µM | KM12 > 100 µM | A549 > 100 µM | NCI-H522 > 100 µM | NCI-H226 > 100 µM | NCI-H23 > 100 µM | ACHN > 100 µM | OVCAR-5 > 100 µM | M14 > 100 µM | SR > 100 µM | CCRF-CEM > 100 µM | OVCAR-8 > 100 µM | SK-MEL-2 > 100 µM | KM-20L2 > 100 µM | A498 > 100 µM | IGROV-1 > 100 µM
